Biological target: T1, human Orexin-2 receptor (Homo sapiens, UniProt O43614)
T1 construct: expressed in transfected cells; host or cells: HEK293 cells (transient transfection, Genejuice); membranes
T1 sequence (O43614 1-444): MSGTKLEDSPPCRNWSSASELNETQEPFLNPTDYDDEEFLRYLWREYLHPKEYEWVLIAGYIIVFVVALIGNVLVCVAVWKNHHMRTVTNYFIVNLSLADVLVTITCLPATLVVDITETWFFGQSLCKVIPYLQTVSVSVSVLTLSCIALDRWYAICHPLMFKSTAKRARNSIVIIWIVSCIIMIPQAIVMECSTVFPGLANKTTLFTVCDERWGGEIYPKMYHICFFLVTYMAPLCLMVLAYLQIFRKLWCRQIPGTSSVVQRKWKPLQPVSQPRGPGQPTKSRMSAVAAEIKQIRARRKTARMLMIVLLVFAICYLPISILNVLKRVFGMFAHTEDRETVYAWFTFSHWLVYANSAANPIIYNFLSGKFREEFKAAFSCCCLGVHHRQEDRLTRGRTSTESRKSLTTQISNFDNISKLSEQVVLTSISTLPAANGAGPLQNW
Assay: 3H-EMPA radioligand binding assay
Details: 3H-EMPA displacement, membranes of HEK293 cells transfected with human Orexin-2 receptor; KI by Cheng-Prussoff; read-out: OX2 pKi ave (converted)
How it was run: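 Membranes from HEK293 cells transiently transfected with human orexin-2 receptor cDNA, assayed with [3H]EMPA. Bound ligand collected on PEI-treated GF/B filters and counted by scintillation; IC50 from inhibition curves, Ki by Cheng-Prusoff.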

| Ki [nM] | SMILES |
| --- | --- |
| 15.8 | COc1cc(N2C(=O)N(Cc3c(F)cccc3Cl)c3ccccc3S2(=O)=O)ccn1 [Example 143, 4-(2-Chloro-6-fluorobenzyl)-2-(2-methoxypyridin-4-yl)-2H-1,2,4-benzothiadiazin-3(4H)-one 1,1-dioxide] |
| 50.1 | COc1cccc(N2C(=O)N(Cc3c(F)cc(F)cc3F)c3ccccc3S2(=O)=O)n1 [Example 144, 2-(6-Methoxypyridin-2-yl)-4-(2,4,6-trifluorobenzyl)-2H-1,2,4-benzothiadiazin-3(4H)-one 1,1-dioxide] |
| 0.363 | COc1cc(F)c(CN2C(=O)N(c3cnc(OC)c(OC)c3)S(=O)(=O)c3ccccc32)c(F)c1 [Example 146, 4-(2,6-difluoro-4-methoxybenzyl)-2-(5,6-Dimethoxypyridin-3-yl)-2H-1,2,4-benzothiadiazin-3(4H)-one 1,1-dioxide] |
| 1.58 | COc1ccc(N2C(=O)N(Cc3c(F)cc(F)cc3F)c3ccccc3S2(=O)=O)nc1OC [Example 147, 2-(5,6-Dimethoxypyridin-2-yl)-4-(2,4,6-trifluorobenzyl)-2H-1,2,4-benzothiadiazin-3(4H)-one 1,1-dioxide] |
| 1.38 | COc1cc(N2C(=O)N(Cc3c(F)cc(F)cc3F)c3ccccc3S2(=O)=O)cc(OC)n1 [Example 148, 2-(2,6-Dimethoxypyridin-4-yl)-4-(2,4,6-trifluorobenzyl)-2H-1,2,4-benzothiadiazin-3(4H)-one 1,1-dioxide] |
| 0.138 | COc1cc(F)c(CN2C(=O)N(c3cc(OC)nc(OC)c3)S(=O)(=O)c3ccccc32)c(F)c1 [Example 149, 4-(2,6-Difluoro-4-methoxybenzyl)-2-(2,6-dimethoxypyridin-4-yl)-2H-1,2,4-benzothiadiazin-3(4H)-one 1,1-dioxide] |
| 17.4 | CCn1cc(N2C(=O)N(Cc3c(F)cccc3Cl)c3ccccc3S2(=O)=O)cn1 [Example 150, 4-(2-Chloro-6-fluorobenzyl)-2-(1-ethyl-1H-pyrazol-4-yl)-2H-1,2,4-benzothiadiazin-3(4H)-one 1,1-dioxide] |
| 2 | CSc1cncc(N2C(=O)N(Cc3c(F)cccc3Cl)c3ccccc3S2(=O)=O)c1 [Example 151, 4-(2-Chloro-6-fluorobenzyl)-2-[5-(methylsulfanyl)pyridin-3-yl]-2H-1,2,4-benzothiadiazin-3(4H)-one 1,1-dioxide] |
| 5.89 | CSc1cncc(N2C(=O)N(Cc3c(F)cc(F)cc3F)c3ccccc3S2(=O)=O)c1 [Example 152, 2-[5-(Methylsulfanyl)pyridin-3-yl]-4-(2,4,6-trifluorobenzyl)-2H-1,2,4-benzothiadiazin-3(4H)-one 1,1-dioxide] |
| 0.224 | COc1cc(F)c(CN2C(=O)N(c3ccc(OC)c(OC)n3)S(=O)(=O)c3ccccc32)c(F)c1 [Example 153, 4-(2,6-Difluoro-4-methoxybenzyl)-2-(5,6-dimethoxypyridin-2-yl)-2H-1,2,4-benzothiadiazin-3(4H)-one 1,1-dioxide] |
| 3.02 | COc1cc(F)c(CN2C(=O)N(c3ccc(OC)nc3)S(=O)(=O)c3ccccc32)c(Cl)c1 [Example 154, 4-(2-Chloro-6-fluoro-4-methoxybenzyl)-2-(6-methoxypyridin-3-yl)-2H-1,2,4-benzothiadiazin-3(4H)-one 1,1-dioxide] |
| 1.74 | COc1cc(N2C(=O)N(Cc3c(F)cc(F)cc3Cl)c3ccccc3S2(=O)=O)cnc1OC [Example 155, 4-(2-Chloro-4,6-difluorobenzyl)-2-(5,6-dimethoxypyridin-3-yl)-2H-1,2,4-benzothiadiazin-3(4H)-one 1,1-dioxide] |
| 11.2 | O=C1N(Cc2c(F)cc(F)cc2F)c2ccccc2S(=O)(=O)N1Cc1cc(=O)[nH]c2ccccc12 [Example 156, 4-(2,4,6-Trifluorobenzyl)-2-[(2-oxo-1,2-dihydroquinolin-4-yl)methyl]-2H-1,2,4-benzothiadiazin-3(4H)-one 1,1-dioxide] |
| 0.575 | COc1cc(N2C(=O)N(Cc3c(F)cc(F)cc3Cl)c3ccccc3S2(=O)=O)cc(OC)n1 [Example 157, 4-(2-Chloro-4,6-difluorobenzyl)-2-(2,6-dimethoxypyridin-4-yl)-2H-1,2,4-benzothiadiazin-3(4H)-one 1,1-dioxide] |
| 3.39 | CN(C)c1cccc(N2C(=O)N(Cc3c(F)cc(F)cc3F)c3ccccc3S2(=O)=O)n1 [Example 158, 2-[6-(Dimethylamino)pyridin-2-yl]-4-(2,4,6-trifluorobenzyl)-2H-1,2,4-benzothiadiazin-3(4H)-one 1,1-dioxide] |
| 3.09 | CN(C)c1cc(N2C(=O)N(Cc3c(F)cc(F)cc3F)c3ccccc3S2(=O)=O)ccn1 [Example 159, 2-[2-(Dimethylamino)pyridin-4-yl]-4-(2,4,6-trifluorobenzyl)-2H-1,2,4-benzothiadiazin-3(4H)-one 1,1-dioxide] |

| Ki [nM] | SMILES |
| --- | --- |
| 17.4 | CSc1ccc(N2C(=O)N(Cc3c(F)cc(F)cc3F)c3ccccc3S2(=O)=O)cn1 [Example 160, 2-[6-(Methylsulfanyl)pyridin-3-yl]-4-(2,4,6-trifluorobenzyl)-2H-1,2,4-benzothiadiazin-3(4H)-one 1,1-dioxide] |
| 1.26 | COc1ccc(N2C(=O)N(Cc3c(F)cc(F)cc3Cl)c3ccccc3S2(=O)=O)nc1OC [Example 161, 4-(2-Chloro-4,6-difluorobenzyl)-2-(5,6-dimethoxypyridin-2-yl)-2H-1,2,4-benzothiadiazin-3(4H)-one 1,1-dioxide] |
| 18.6 | COc1cc(N2C(=O)N(Cc3ncc(F)cc3C)c3ccccc3S2(=O)=O)cc(OC)n1 [Example 162, 2-(2,6-Dimethoxypyridin-4-yl)-4-[(5-fluoro-3-methylpyridin-2-yl)methyl]-2H-1,2,4-benzothiadiazin-3(4H)-one 1,1-dioxide] |
| 1.38 | COc1cc(F)c(CN2C(=O)N(c3cc(OC)nc(OC)c3)S(=O)(=O)c3cccnc32)c(F)c1 [Example 163, 4-(2,6-Difluoro-4-methoxybenzyl)-2-(2,6-dimethoxypyridin-4-yl)-2H-pyrido[2,3-e][1,2,4]thiadiazin-3(4H)-one 1,1-dioxide] |
| 0.661 | COc1cc(F)c(CN2C(=O)N(c3ccc(OC)c(OC)n3)S(=O)(=O)c3cccnc32)c(F)c1 [Example 164, 4-(2,6-Difluoro-4-methoxybenzyl)-2-(5,6-dimethoxypyridin-2-yl)-2H-pyrido[2,3-e][1,2,4]thiadiazin-3(4H)-one 1,1-dioxide] |
| 0.676 | COc1cc(F)c(CN2C(=O)N(c3cnc(OC)c(OC)c3)S(=O)(=O)c3cccnc32)c(F)c1 [Example 165, 4-(2,6-Difluoro-4-methoxybenzyl)-2-(5,6-dimethoxypyridin-3-yl)-2H-pyrido[2,3-e][1,2,4]thiadiazin-3(4H)-one 1,1-dioxide] |
| 2.69 | COc1cc(N2C(=O)N(Cc3c(F)cccc3Cl)c3ccccc3S2(=O)=O)cc(OC)n1 [Example 166, 4-(2-Chloro-6-fluorobenzyl)-2-(2,6-dimethoxypyridin-4-yl)-2H-1,2,4-benzothiadiazin-3(4H)-one 1,1-dioxide] |
| 2.19 | COc1cc(N2C(=O)N(Cc3c(F)cccc3F)c3ccccc3S2(=O)=O)cc(OC)n1 [Example 167, 4-(2,6-Difluorobenzyl)-2-(2,6-dimethoxypyridin-4-yl)-2H-1,2,4-benzothiadiazin-3(4H)-one 1,1-dioxide] |
| 1.23 | COc1ccc(N2C(=O)N(Cc3c(F)cccc3Cl)c3ncccc3S2(=O)=O)nc1OC [Example 168, 4-(2-Chloro-6-fluorobenzyl)-2-(5,6-dimethoxypyridin-2-yl)-2H-pyrido[2,3-e][1,2,4]thiadiazin-3(4H)-one 1,1-dioxide] |
| 0.851 | COc1ccc(N2C(=O)N(Cc3c(F)cccc3F)c3ncccc3S2(=O)=O)nc1OC [Example 169, 4-(2,-Difluorobenzyl)-2-(5,6-dimethoxypyridin-2-yl)-2H-pyrido[2,3-e][1,2,4]thiadiazin-3(4H)-one 1,1-dioxide] |
| 7.24 | COc1cnc(N2C(=O)N(Cc3c(F)cc(F)cc3F)c3ccccc3S2(=O)=O)nc1OC [Example 170, 2-(4,5-dimethoxypyrimidin-2-yl)-4-(2,4,6-trifluorobenzyl)-2H-1,2,4-benzothiadiazin-3(4H)-one 1,1-dioxide] |
| 1.78 | COc1cc(F)c(CN2C(=O)N(c3cnc(OC)c(C)c3)S(=O)(=O)c3ccccc32)c(F)c1 [Example 171, 4-(2,6-difluoro-4-methoxybenzyl)-2-(6-methoxy-5-methylpyridin-3-yl)-2H-1,2,4-benzothiadiazin-3(4H)-one 1,1-dioxide] |
| 7.76 | CNc1ccc(N2C(=O)N(Cc3c(F)cc(F)cc3F)c3ncccc3S2(=O)=O)nc1OC [Example 172, 2-[6-methoxy-5-(methylamino)pyridin-2-yl]-4-(2,4,6-trifluorobenzyl)-2H-pyrido[2,3-e][1,2,4]thiadiazin-3(4H)-one 1,1-dioxide] |
| 2.4 | COc1cc(F)c(CN2C(=O)N(c3ccc(C)c(C)n3)S(=O)(=O)c3cccnc32)c(F)c1 [Example 173, 4-(2,6-Difluoro-4-methoxybenzyl)-2-(5,6-dimethylpyridin-2-yl)-2H-pyrido[2,3-e][1,2,4]thiadiazin-3(4H)-one 1,1-dioxide] |
| 7.24 | COc1cc(F)c(CN2C(=O)N(c3cc(C)cc(C)n3)S(=O)(=O)c3cccnc32)c(F)c1 [Example 174, 4-(2,6-Difluoro-4-methoxybenzyl)-2-(4,6-dimethylpyridin-2-yl)-2H-pyrido[2,3-e][1,2,4]thiadiazin-3(4H)-one 1,1-dioxide] |

— US10316028B2, “Orexin receptor antagonists” (Heptares Therapeutics Limited, priority 2012, dated 2019)
